One may read the EC50 as the concentration at which the effect is half-maximal.

The values that follow come from article PMC9400670, “Establishing the selective phospholipid membrane coordination, permeation and lysis properties for a series of ‘druggable’ supramolecular self-associating antimicrobial amphiphiles” (Chemical Science, 2022).

The subject of the first experiment is PG nanodiscs. Kind of experiment: Phospholipid nanodisc 1H NMR CPMG coordination assay, PG nanodiscs. The settings on record: SSA 100 µM; experimental endpoint 4.00 µM nanodisc; read-out: EC50 PG, cationic SSA component. It is filed as binding. From the text:
Finally, to establish how any single SSA structural variation affects the coordination of an individual salt component to the surface of a phospholipid membrane, the binding of the anionic and cationic components of SSAs 5–12 with nanodiscs comprised of PC, PG or the PE : PG mix (Table 2) was studied. Nanodiscs were synthesised from synthetic vesicles of the relevant phospholipid composition. For full synthetic procedures and nanodisc characterisation please see ESI (Section 13). ^†[34,35]
Styrene-maleic acid (SMA) nanodiscs are small biomimetic scaffolds with a hydrodynamic diameter ≈ 10 nm. They consist of a single disc-shaped planar phospholipid bilayer, ‘belted’ in this instance with a synthetic SMA co-polymer. Here nanodiscs of a specific phospholipid composition were titrated against a solution of SSAs 5–12 (0.10 mM) in a sodium phosphate buffer (20 mM) with NaCl (20 mM) at pH 7.4. This solution was supplemented with 5% D2O, to enable NMR locking and 4,4-dimethyl4-silapentane-1-sulfonic acid (DSS – 0.02 mM) to act as an internal standard. The nanodiscs were then titrated against the SSA, while the SSA concentration was maintained as constant, well below the CMC (Table 3).[38] A 1D ^1H NMR with a Carr–Purcell–Meiboom–Gill sequence (CPMG) filter (300 ms),[36,48] modified with a watergate element was then obtained for each experimental data point. The watergate element was used to allow suppression of the water signal, whereas the CPMG filter enabled the suppression of those resonances from molecular species with long correlation times, which in this instance correlate to the signals of those SSAs coordinated to the nanodisc, rather than those which exist as free species in solution. Comparative integration of the resonances corresponding to the SSA cation or anion, standardised against the DSS internal standard, permits the percentage of the individual SSA components coordinated to the phospholipid nanodisc to be established with respect to increasing nanodisc concentration.
However, when considering the 1/EC50 for the SSA cationic component (Fig. 10b), the reverse is true. This is perhaps expected, but nevertheless despite the identical experimental conditions, including the same TBA counter cation across SSAs 5–12, there is a marked difference in the 1/EC50 obtained, where the only difference is the SSA anion present. This is most noticeable for the series of SSA titrations involving the PE : PG mix (Table 2) nanodiscs. The only variation within this set of titrations is the structure of the SSA anion; we therefore conclude that the SSA anion is influencing SSA cation nanodisc coordination events. This observation provides evidence for the presence of further complex interactions informing SSA:nanodisc coordination processes. […]
Data were acquired in endpoint mode. All experiments were repeated in triplicate […]
Nanodisc preparation: Lipid films were resuspended in Buffer (20 mM NaCl, 20 mM NaH 2PO4, pH 7.4) and sonicated for 1 hour, at a 5:1 ratio, SMA was added and incubated at 37 °C for 1 hour. Dialysed overnight in 5 L of the same buffer in 10 KDa cut-off dialysis tubing, concentrated, and underwent gel filtration size exclusion chromatography on a Superdex 200 10/300 GL column (GE Healthcare) in the same buffer, whilst monitoring absorbance at 260 nm. Nanodisc quantification carried out via monitoring of absorbance at 260 nm using a calibration curve.2
1H NMR CPMG: 1H NMR CPMG3,4 spectra were obtained with a Bruker Avance III […] spectrometer equipped with a TCIP cryoprobe at 298 K. Samples were supplemented with 5 % D 2O and 0.02 mM 4,4-dimethyl4-silapentane-1-sulfonic acid (DSS). The standard zgprcpmg pulse sequence from the Bruker library was modified with a watergate element to allow suppressi on of the water signal and was used for all experiments. Although this sequence is readily obtainable, we are happy to provide it on request. The P1 pulses were 9 µs at a power of 7.9 W. Presaturation was applied between […]
Take `O=C(NCS(=O)(=O)O)Nc1ccccc1-c1nc2ccccc2s1` [SSA 5]: the EC50 is more than 4 µM.

The same experiment, now with this note: concentration of nanodisc coordinating 50 % of the SSA anion; SSA 100 µM; Hill Plot fit, Vmax fixed 100 %; read-out: EC50 PG, anionic SSA component.
Regarding `Cc1ccc2nc(-c3ccc(NC(=O)NCS(=O)(=O)O)cc3)sc2c1` [SSA 6], the EC50 came out at 0.82 µM.
In the case of `Cc1ccc2nc(-c3ccc(NC(=O)NCCC(=O)O)cc3)sc2c1` [SSA 9], the EC50 worked out at 1.07 µM.
Consider `Cc1ccc2nc(-c3ccc(NC(=O)NCCCS(=O)(=O)O)cc3)sc2c1` [SSA 10], for which the EC50 was 0.5 µM.
On to `Cc1ccc2nc(-c3ccc(NC(=O)NCC(=O)O)cc3)sc2c1` [SSA 11], for which the 50% effective concentration (EC50) is 2.1 µM.
Regarding `Cc1ccc2nc(-c3ccc(NC(=S)NCS(=O)(=O)O)cc3)sc2c1` [SSA 12], the EC50 worked out at 0.29 µM.

Staying with this experiment, now noted: concentration of nanodisc coordinating 50 % of the SSA cation; SSA 100 µM; Hill Plot fit, Vmax fixed 100 %; read-out: EC50 PG, cationic SSA component.
Consider `Cc1ccc2nc(-c3ccc(NC(=O)NCS(=O)(=O)O)cc3)sc2c1` [SSA 6], for which the EC50 was determined as 2.86 µM.
Same read-out and setting: the result for `Cc1ccc2nc(NC(=O)NCS(=O)(=O)O)sc2c1` [SSA 7] reads 3.42 µM.
As for `O=C(NCS(=O)(=O)O)Nc1ccc(-c2nc3ccccc3s2)cc1` [SSA 8], the concentration giving a half-maximal response (EC50) was determined as 3.11 µM.
`Cc1ccc2nc(-c3ccc(NC(=O)NCCC(=O)O)cc3)sc2c1` [SSA 9]: the EC50 is 2.69 µM.
Take `Cc1ccc2nc(-c3ccc(NC(=O)NCCCS(=O)(=O)O)cc3)sc2c1` [SSA 10]: the half-maximal effective concentration (EC50) came to 1.16 µM.
The same measure, in the same setting: the value for `Cc1ccc2nc(-c3ccc(NC(=O)NCC(=O)O)cc3)sc2c1` [SSA 11] was 2.82 µM; that for `Cc1ccc2nc(-c3ccc(NC(=S)NCS(=O)(=O)O)cc3)sc2c1` [SSA 12] was 0.9 µM.
